Experiments:
[1] = molecular target: T1, recombinant human Δ49N CHKA2 (Homo sapiens, UniProt P35790); conditions: cited from earlier work
HCT116 cells [2] = test: Cell membrane integrity assay (LDH release); format: cell-based, human; conditions: 1–25 μM, 4 h
Method: Cell membrane integrity was assessed using a fluorescent kit measuring lactate dehydrogenase (LDH) release (CytoTox-ONETM, Promega) according to manufacturer's instructions.

AMPK = test: Kinase selectivity screen; format: biochemical, rat
Method: The substantially less demanding synthesis of ICL-CCIC-0019 compared with MN58B bears additional advantages. […] This consequently diminished intracellular PCho concentration, and importantly, the incorporation of [^3H]-choline into lipids (Figure 1D). […] To assess kinase specificity, ICL-CCIC-0019 was tested against a panel of 131 human kinases (Figure 1E and Supplementary Table S1). […] Inhibition greater than 20% was attained for insulin-like growth factor 1 (IGF-1R, 35 ± 7% inhibition), mitogen-activated protein kinase-activated protein kinase 3 (MAPKAP-K3, 33 ± 6%), extracellular signal regulated kinase 8 (ERK8, 31 ± 4%), ribosomal S6 kinase 1 (RSK1, 22 ± 6%), and v-erb-a erythroblastic leukemia viral oncogene homolog 4 (HER4, 21 ± 7%).

HCT116 cells [3] = test: [3H]choline uptake in HCT116 cells; format: cell-based; conditions: Homo sapiens, HCT-116
Method: (§1) Enzymatic kinase activity, [^3H]choline to [^3H]PCho conversion and growth inhibition assays was conducted as previously described. [^3H]choline incorporation into soluble and lipid fractions was determined by a pulse-chase experiment. HCT116 cells were seeded at a density of 3 × 10^5 cell per well into 12-well plates and incubated overnight. Cells were treated with 1 or 10 μM ICL-CCIC-0019 for 1 h and pulsed in presence of inhibitor with 18.5 kBq/mL [^3H]choline chloride in 500 μL for 1 additional h. Cells were briefly rinsed with RPMI and incubated with fresh, non-radioactive medium for 6 h. Metabolites were extracted as described elsewhere, but additionally the radioactivity of the choline-containing and chloroform (lipid-containing) fractions was measured. Uptake of radiolabeled metabolite-tracers was measured as described elsewhere. Antiproliferative activity was measured after 72 h continuous exposure to inhibitors by sulforhodamine B (SRB) assay as described elsewhere. Apoptosis was determined using Caspase 3/7 Glo assay (Promega) according to the manufacturer's instructions.

HCT116 cells [4] = test: Metabolomics (LC-MS of soluble metabolites); format: cell-based, human; conditions: for change of intracellular PCho pool: 24 h
Method: Unlabeled metabolite analyses were conducted as previously reported. HCT116 cells cultured overnight in 6-well plates were treated with vehicle, 1 or 10 μM ICL-CCIC-0019 for 24 h prior to extraction. For flux experiments, HCT116 cells were plated onto 6-well plates and cultured overnight. The cells were then grown in medium containing vehicle or 1 μM ICL-CCIC-0019 for 24 h. The medium was then replaced with that containing ^13C metabolites (5 mM ^13C6-glucose or 0.2 mM ^13C2-acetate) and inhibitor for various indicated time points. Metabolites were extracted with a cold solution (−20°C) composed of methanol, acetonitrile, and water (5:3:2). The insoluble material was immediately pelleted in a cooled (0°C) centrifuge at 16,000 × g for 15 min and the supernatant was collected for subsequent LC-MS analysis. A ZIC-pHILIC column (4.6 mm × 150 mm, guard column 2.1 mm × 20 mm, Merck) was used for LC separation using formic acid, water, and acetonitrile as component of the mobile phase. Metabolites were detected using an Exactive mass spectrometer (ThermoFisher).

[5] = molecular target: T1, recombinant human Δ49N CHKA2; test: Enzymatic inhibition of choline kinase activity; format: biochemical
Method: as §1

HCT116 cells [6] = test: TMRE mitochondrial membrane potential assay; format: cell-based, human; conditions: 10 μM, 24 h
Method: HCT116 cells were cultured as above with indicated inhibitors and subject to the tetramethylrhodamine ethyl ester dye method (TMRE) membrane potential assay according to the manufacturers instruction (Abcam ab113852) prior to FACS analysis.

HCT116 cells [7] = test: DNA cell cycle analysis (flow cytometry, propidium iodide); format: cell-based, human
Method: Supernatant and cells were harvested, washed and centrifuged. The cell pellet was resuspended it 1 mL ice-cold PBS and the suspension added to 9 mL 70% ethanol, while mixing gently. Cells were fixed for at least 2 hours at −20°C. Cells were centrifuged and rehydrated in 3 mL cold PBS for 15 minutes. Samples were stained in 500 μL buffer containing 100 mM Tris pH 7.4, 150 mM NaCl, 1 mM CaCl2, 0.5 mM MgCl2, 0.1% Triton X-100, 0.1 mg/ml RNase A, 50 μg/ml propidium iodide (all items from Sigma-Aldrich) at 37°C for 3 h protected from light. Data were acquired on a BD FACS Canto flow cytometer (BD Bioscience) and analyzed using FlowJo 7.6.4 software (Tree Star).

HCT116 cells [8] = test: Antiproliferative activity (SRB); format: cell-based; conditions: Homo sapiens, HCT-116
Method: as §1

A549 cells = test: Comparative antiproliferative activity; format: cell-based, human
Method: as §1

CHKA = molecular target: T2, CHKA (Homo sapiens, UniProt P35790); test: CHKA dimer integrity by BN-PAGE; format: cell-based; conditions: HCT116 cells, 24 hours
T2 construct: endogenous in cells; host or cells: HCT116
T2 sequence (P35790 whole entry): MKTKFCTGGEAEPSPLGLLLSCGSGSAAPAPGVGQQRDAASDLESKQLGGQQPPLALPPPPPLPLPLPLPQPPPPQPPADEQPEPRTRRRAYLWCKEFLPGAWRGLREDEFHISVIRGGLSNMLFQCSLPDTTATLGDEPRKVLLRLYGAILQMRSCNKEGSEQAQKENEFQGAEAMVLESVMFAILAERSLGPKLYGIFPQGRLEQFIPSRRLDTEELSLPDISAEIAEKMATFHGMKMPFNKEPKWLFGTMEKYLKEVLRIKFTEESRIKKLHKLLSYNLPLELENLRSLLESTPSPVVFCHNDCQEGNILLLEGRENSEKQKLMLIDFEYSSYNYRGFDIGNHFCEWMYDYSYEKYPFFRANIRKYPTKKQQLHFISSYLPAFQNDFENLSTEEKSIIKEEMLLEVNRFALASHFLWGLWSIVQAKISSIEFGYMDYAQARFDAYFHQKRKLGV
Method: Native gels were run using blue native polyacrylamide gel electrophoresis (BN-PAGE) method. Cell homogenates were obtained by addition of passive lysis buffer (Promega) containing protease and phosphatase inhibitors to cell pellets and incubation for 30 minutes on a tube rotor at 4°C. Samples were cleared by centrifugation for 10 minutes at 12 000 × g at 4°C. Samples were prepared by mixing 30 μg protein with an equal volume of 2 × sample buffer (62.5 mM Tris-HCl, pH 6.8, 25% (v/v) glycerol, 0.01% (w/v) bromophenol blue, 0.02% (w/v) Coomassi Blue G250; all from Sigma-Aldrich). As control, D49N CHKA2 [58] was either applied under native conditions (100 ng diluted to 10 μL in 100 mM Tris buffer pH 7.4 added to 10 μL 2 × sample buffer) or denatured using SDS [100 ng diluted in RIPA buffer, 1 × NuPAGE LDS sample buffer and 1 × sample reducing agent (both Life Technologies)] and incubated at 70°C for 10 minutes. Samples were resolved on 4–15% mini-protean TGX gels using 1 × native running buffer (25 mM Tris, 192 mM glycine, pH 8.3). The cathode buffer was additionally supplemented with 750 μL Coomassi Blue G250 [final concentration ca. 0.04% (w/v)]. Membranes were transferred and probed as described above.

T1 sequence (P35790 50-457 limits assumed, stated change not applied): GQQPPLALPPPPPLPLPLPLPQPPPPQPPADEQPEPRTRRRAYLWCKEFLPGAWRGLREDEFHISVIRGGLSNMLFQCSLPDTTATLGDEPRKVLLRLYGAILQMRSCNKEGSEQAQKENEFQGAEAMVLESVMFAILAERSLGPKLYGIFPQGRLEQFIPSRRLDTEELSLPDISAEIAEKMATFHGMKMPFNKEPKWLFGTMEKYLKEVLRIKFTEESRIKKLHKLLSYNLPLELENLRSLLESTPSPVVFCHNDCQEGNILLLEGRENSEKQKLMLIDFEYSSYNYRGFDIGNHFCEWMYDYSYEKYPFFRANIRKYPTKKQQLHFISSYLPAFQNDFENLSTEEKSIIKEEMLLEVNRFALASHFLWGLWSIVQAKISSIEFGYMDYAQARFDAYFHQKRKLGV

CN(C)c1cc[n+](CCCCCCCCCCCC[n+]2ccc(N(C)C)cc2)cc1 [ICL-CCIC-0019]
mode of CHKA inhibition [1]: competitive with choline, but not ATP
LDH concentration in the supernatant (HCT116 cells [2]): did not elevate LDH concentration
% activity remaining (AMPK; AMPK, 10 μM): 109%
direct effect on AMPK activity (AMPK; cell-free kinase assays): did not directly alter AMPK activity
EC50 (HCT116 cells [3]): 0.98 ± 0.24 µM
change of intracellular PCho pool (HCT116 cells [4]; 1 μM): −56%
change of intracellular PCho pool (HCT116 cells [4]; 10 μM): −61%
decrease in S-adenosylhomocysteine (SAH) (HCT116 cells [4]; HCT116 cells): 26%
increase in SAM (HCT116 cells [4]; HCT116 cells): 11%
potency compared with MN58B ([5]; CHKA inhibition): equipotent to MN58B
potency relative to CK37 (times more potent) ([5]; CHKA inhibition): > 500 times
IC50 ([5]; read-out: IC50 of CHKA activity): 0.27 ± 0.06 µM
TMRE-detectable mitochondrial membrane potential (HCT116 cells [6]): decreased
increase of cells in G1 phase (HCT116 cells [7]; 10 μM, 24 h): 2 fold
increase of sub-G1 population (HCT116 cells [7]; 48 h): 3.7 fold
GI50 (HCT116 cells [8]): 0.38 µM
antiproliferative activity compared with CK37 (A549 cells): superior to CK37
antiproliferative activity compared with MN58B (A549 cells): equipotent to MN58B
CHKA enzyme dimerization (CHKA): not compromised

Source: article PMC5095062, “The novel choline kinase inhibitor ICL-CCIC-0019 reprograms cellular metabolism and inhibits cancer cell growth” (Oncotarget, 2016)
